Data reported in patent US20230310374A1, “COMPOSITIONS AND METHODS FOR TREATING HEADACHE OR FACIAL PAIN” (priority 2021, published 2023).
Read-outs that look alike come from different tables or passages of the source.

Tests used:
Human 5-HT1B receptor = target: T1, Human 5-HT1B receptor (Homo sapiens, UniProt P28222); test: Hit Hunter cAMP secondary messenger assay, Gi agonist mode; format: cell-based; conditions: for Curve Top (% activation) / Emax: relative to 5-HT MAX control
T1 construct: host or cells: CHO-K1 (hamster), stably transfected; cAMP Hunter cell line
Description: Methods: cAMP Secondary Messenger Pathway Assay Method.
Hit Hunter® cAMP assays were used to monitor the activation of a GPCR via Gi and Gs secondary messenger signaling in a homogenous, non-imaging assay format using DiscoverX's Enzyme Fragment Complementation (EFC) with β-galactosidase (β-Gal) as the functional reporter. The enzyme is split into two complementary portions: EA for Enzyme Acceptor and ED for Enzyme Donor. ED is fused to cAMP and in the assay competes with cAMP generated by cells for binding to a cAMP-specific antibody. Active β-Gal is formed by complementation of exogenous EA to any unbound EDcAMP.
cAMP Hunter cell lines were expanded from freezer stocks according to standard procedures. Human 5-HT1B receptor-mediated cAMP signaling was evaluated in stably transfected hamster-derived CHO-K1 cells. Cells were seeded in a total volume of 20 μL into white walled, 384-well microplates and incubated at 37° C. overnight. cAMP modulation was determined using the DiscoverX HitHunter cAMP XS+ assay.
For Gi agonist determination, cells were incubated with sample in the presence of 15 mM forskolin to induce response. Media was aspirated from cells and replaced with 10 μL HBSS/10 mM Hepes. Intermediate dilution of sample stocks was performed to generate 4× sample in assay buffer. 5 μL of 4× sample plus 5 μL of 4× forskolin was added to cells and incubated at 37° C. for 30 minutes. Final assay vehicle concentration was 1%. After compound incubation, assay signal was generated through incubation with 20 μL cAMP XS+ED/CL lysis cocktail for one hour followed by incubation with 20 μL cAMP XS+EA reagent for three hours at room temperature. Microplates were read following signal generation with a PerkinElmer Envision™ instrument for chemiluminescent signal detection.
Compound activity was analyzed using CBIS data analysis suite (ChemInnovation, CA). For Gi agonist mode assays, percentage activity is calculated using the following formula: % Activity=100%×(1−(mean RLU of test sample−mean RLU of MAX control)/(mean RLU of vehicle control−mean RLU of MAX control)).
The same human 5-HT1B receptor functional agonism assay as described above was used in a separate experiment.

humans = conditions: cited from earlier work
mice [1] = conditions: cited from earlier work
rats = conditions: cited from earlier work
mice [2] = conditions: cited from earlier work; remark: listed apart in the source
[3] = system: female mice exposed to stress and sodium nitroprusside (SNP); test: Stress plus sodium nitroprusside (SNP)-induced migraine mice model, von Frey facial withdrawal score; format: in vivo, C57BL/6j mice
Method: To evaluate the prophylactic and acute/abortive treatment effects of single administration of 5-OH-DMT to female mice exposed to stress and sodium nitroprusside (SNP) as a model of stress-primed migraine pain.
C57BL/6j mice (7-8 weeks, female) were acclimated for 1 week prior to the experiment. Mice were kept in groups of 4-5 animals per cage in a housing room with temperature maintained at 21-23° C. and 40-70% relative humidity, on a 12/12 h light:dark cycle. Chow and water were available ad libitum except during testing. […] On Day 10, von Frey testing was conducted again to confirm that mechanical withdrawal scores were similar across naïve and stress-exposed mice. Stress-exposed animals were randomized to treatment groups based on body weight and facial mechanical withdrawal score. Then, each animal was administered a 1st intraperitoneal (i.p.) injection of 5-OH-DMT (dissolved in 0.9% sterile saline and administered at 3, 10 or 30 mg/kg in a volume of 10 ml/kg) or vehicle.
On Day 11, at 24 h following the 1st injection, vehicle or 0.1 mg/kg sodium nitroprusside (SNP) was given i.p. and facial mechanical withdrawal scores were assessed 3 hours later to confirm establishment of a stress+SNP-induced hypersensitive state in Day 10 vehicle-treated animals (Groups 2-6) or, in Day 10 test article-treated […] (Groups 7-9), assess the prophylactic effect of compound administration. On Day 12, at 23 hours after vehicle or SNP injection, each animal was administered a 2nd i.p. injection of vehicle or 5-OH-DMT or sumatriptan (acute treatment positive control animals received vehicle on Day 10). One hour later, facial withdrawal scores were assessed to evaluate acute effects of treatments (Groups 2-6) or durability of prophylactic effects (Groups 7-9).
Mice were allowed to acclimate to the testing cage for 60 minutes each day before the test. To assess pain-like behaviors induced by noxious mechanical stimulation applied on the vibrissal pad (orofacial area), the mouse was placed in a small cage with a metal mesh ceiling and a wood bottom (10 cm×5 cm×5 cm). The semiparametric scoring system used to evaluate the response of the animal to the mechanical stimulation was described in detail by Vos et al. (1994). Mechanical stimulation delivered by a von Frey hair with the bending force of 0.07 g was applied bilaterally to the vibrissal pad. […] The summated score of these 8 trials was counted as the animal's response score. […]

T1 sequence (P28222 whole entry): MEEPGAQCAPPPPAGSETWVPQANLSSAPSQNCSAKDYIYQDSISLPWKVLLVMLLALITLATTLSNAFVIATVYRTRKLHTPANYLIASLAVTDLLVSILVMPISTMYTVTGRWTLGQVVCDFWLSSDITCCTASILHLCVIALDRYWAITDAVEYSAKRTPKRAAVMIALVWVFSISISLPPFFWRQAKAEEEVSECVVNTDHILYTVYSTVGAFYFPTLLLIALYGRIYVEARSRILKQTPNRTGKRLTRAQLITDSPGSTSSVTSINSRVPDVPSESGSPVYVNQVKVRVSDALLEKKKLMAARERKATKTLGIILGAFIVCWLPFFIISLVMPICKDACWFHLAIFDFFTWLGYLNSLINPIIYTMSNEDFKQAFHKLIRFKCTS

## NCCc1c[nH]c2ccc(O)cc12 [5-HT, serotonin, reference compound]
Human 5-HT1B receptor; Study #1
  Curve Top (% activation): 100.22%
Human 5-HT1B receptor; Study #2
  Curve Top (% activation): 107.54%
Human 5-HT1B receptor; first experiment (Study #1)
  agonist activity at human 5-HT1B receptors: full agonist activity
Human 5-HT1B receptor; second experiment (Study #2)
  agonist activity at human 5-HT1B receptors: full agonist activity

## COc1ccc2[nH]cc(CCN(C)C)c2c1 [5-MeO-DMT, 5-methoxy-N,N-dimethyltryptamine]
humans; insufflation of 10 mg
  time of initial effects: 3 to 4 min
  time of termination of effects: 60 to 70 min
humans; intravenous
  dose range with psychoactive effects: 0.25 to 3.1 mg
humans; oral, after pretreatment with a monoamine oxidase inhibitor (e.g., harmaline)
  dose with psychoactive effects: 10 to 25 mg
humans; oral, encapsulated
  dose with psychoactive effects: 30 mg
humans; smoked
  dose range with psychoactive effects: 6 to 30 mg
humans; sublingual
  dose with psychoactive effects: ~10 mg
Mice [1]; indicative of in vivo 5-HT2A receptor activation
  head twitch response in mice: induces the head twitch response
Mice [1]; mice, i.p. or s.c.
  dose eliciting mouse head-twitch response: ≥ 10 mg/kg
rats
  acute analgesic effects: exhibited acute analgesic effects

## CN(C)CCc1c[nH]c2ccc(O)cc12 [5-OH-DMT, 5-hydroxy-N,N-dimethyltryptamine]
Mice [2]
  acute anti-inflammatory and analgesic effects: exhibited acute anti-inflammatory and analgesic effects
Human 5-HT1B receptor
  EC50: ≤ 1 nM
Human 5-HT1B receptor; Study #1, read-out: Maximal activation (%)
  Emax: 104%
Human 5-HT1B receptor; Study #2
  Curve Top (% activation): 100.41%
Human 5-HT1B receptor; first experiment (Study #1)
  agonist activity at human 5-HT1B receptors: full agonist activity
Human 5-HT1B receptor; read-out: Maximal activation (%), Study #2
  Emax: 96.7%
Human 5-HT1B receptor; second experiment (Study #2)
  agonist activity at human 5-HT1B receptors: full agonist activity
humans; insufflation of 40 mg
  duration of short-lived aftereffects: up to 90 minutes
  time of initial effects: 5 min
Mice [1]; mice, subcutaneous
  head twitch response ED50: 15 mg/kg
[3]; 30 mg/kg i.p. on Day 10, 24 h before SNP, tested Day 11, 3 h after SNP (G9)
  facial hypersensitivity vs vehicle (G2), prophylactic treatment: significantly reduced facial hypersensitivity
[3]; 30 mg/kg i.p. on Day 10, tested Day 12 (G9)
  facial hypersensitivity vs vehicle (G2), durability of prophylactic effect: significantly reduced facial hypersensitivity
[3]; 30 mg/kg i.p. on Day 12, tested 1 h after injection #2 (G6)
  facial hypersensitivity vs vehicle (G2), acute treatment: significantly reduced facial hypersensitivity

## CNS(=O)(=O)Cc1ccc2[nH]cc(CCN(C)C)c2c1 [sumatriptan, reference compound]
[3]; sumatriptan 1 mg/kg i.p. on Day 12, tested 1 h after injection #2 (G3)
  facial hypersensitivity vs vehicle (G2), acute treatment: significantly reduced facial hypersensitivity
